Experimental data as given in ChEMBL document CHEMBL1159168, “Unsaturated epoxy-C-glycosides. A new class of antitumor compounds with DNA cleavage properties” (Bioorg Med Chem Lett, 1994).
Where “and” joins values, the source holds several entries; their conditions need not be identical. Equal values may be shown once.

What was measured:
Raji = experiment: In vitro cytotoxicity against Raji cells from human lymphoma; assay type: functional, cell-based
LFCl2A = experiment: In vitro cytotoxicity against LFCL2A cells from rat hepatocarcinoma; assay type: functional, cell-based
[1] = Rattus norvegicus, LFCl2A, read-out: IC50

SMILES	IC50 (Raji; Homo sapiens, Raji)	IC50 (Raji; raji)	also measured
CC1=CCCCC1[C@@H]1C=C[C@@]2(CO2)[C@@H](CO)O1 (stereo not given in full)	255 µM and 60.3 µg/mL		
CC/C=C\C/C=C\C/C=C\C/C=C\C/C=C\C/C=C\CCC(=O)OC[C@H]1O[C@H](C2CCCC=C2C)C=C[C@@]12CO2 (stereo in doubt; 15)		62 µM	
CCCCC/C=C\C/C=C\C/C=C\C/C=C\CCCC(=O)OC[C@H]1O[C@H](C2CCCC=C2C)C=C[C@@]12CO2 (stereo in doubt; 17)		66 µM	
C[C@@H]1O[C@@H](CC2=CCCCC2)C=C[C@]12CO2			IC50 (LFCl2A; [1]): 128 µM; IC50 (LFCl2A; lfcl2a): 28.3 mg/L
O=C(O)CCCc1ccc(N(CCCl)CCCl)cc1 [CHLORAMBUCIL]	298 µM		
CCCCC/C=C\C/C=C\C/C=C\C/C=C\CCCC(=O)OC[C@H]1O[C@H](C2CCCC=C2C)C=C[C@@]12CO2 (stereo in doubt; 18)		147 µM	
C[C@@H]1O[C@@H](CC2=CCCCC2)C=C[C@@]12CO2			IC50 (LFCl2A; [1]): 155 µM; IC50 (LFCl2A; lfcl2a): 34.3 mg/L
CC/C=C\C/C=C\C/C=C\C/C=C\C/C=C\C/C=C\CCC(=O)OC[C@H]1O[C@H](C2CCCC=C2C)C=C[C@@]12CO2 (stereo in doubt; 16)	58 µM and 0.106 µg/mL		
